Structures are written as SMILES. Structures can show the parent of a compound that is named as a salt. A value given as a limit tells only on which side of the number the result lay.

The target of one data set is human TAAR1 receptor (Homo sapiens (Human), UniProt Q96RJ0). Description: Evaluation of agonist activity on human TAAR1 receptor (cAMP assay). In kind it is cell-based. The conditions noted are these: CHO, 0.5 h, cAMP in human TAAR1-expressing CHO cells, relative to 100 μM tyramine, read-out: TAAR1 agonist activity at each concentration (%); for activation at 0.1 µM: 100 nM; for activation at 1 µM: 1000 nM; for activation at 10 µM: 10000 nM. Background: Cyclic AMP is a second messenger, typically raised through Gs and lowered through Gi signalling.
human TAAR1 receptor, sequence (Q96RJ0 whole entry, the tested form may be a part): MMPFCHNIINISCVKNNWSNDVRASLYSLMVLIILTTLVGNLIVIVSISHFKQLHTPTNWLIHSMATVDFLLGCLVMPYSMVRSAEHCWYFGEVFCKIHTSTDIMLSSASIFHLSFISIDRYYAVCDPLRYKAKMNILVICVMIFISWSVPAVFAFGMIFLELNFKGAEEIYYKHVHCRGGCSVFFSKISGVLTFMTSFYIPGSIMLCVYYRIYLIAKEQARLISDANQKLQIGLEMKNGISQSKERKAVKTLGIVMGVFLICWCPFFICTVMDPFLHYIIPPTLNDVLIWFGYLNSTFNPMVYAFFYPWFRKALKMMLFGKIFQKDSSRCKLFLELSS

Another data set deals with hERG channel (Homo sapiens (Human), UniProt Q12809). The data set is described as follows: Evaluation of hERG channel inhibitory activity (whole-cell patch clamp, hERG-CHO cells). In kind it is cell-based. The conditions noted are these: autopatch clamp, read-out: hERG inhibition IC50.
hERG channel, sequence (Q12809 whole entry): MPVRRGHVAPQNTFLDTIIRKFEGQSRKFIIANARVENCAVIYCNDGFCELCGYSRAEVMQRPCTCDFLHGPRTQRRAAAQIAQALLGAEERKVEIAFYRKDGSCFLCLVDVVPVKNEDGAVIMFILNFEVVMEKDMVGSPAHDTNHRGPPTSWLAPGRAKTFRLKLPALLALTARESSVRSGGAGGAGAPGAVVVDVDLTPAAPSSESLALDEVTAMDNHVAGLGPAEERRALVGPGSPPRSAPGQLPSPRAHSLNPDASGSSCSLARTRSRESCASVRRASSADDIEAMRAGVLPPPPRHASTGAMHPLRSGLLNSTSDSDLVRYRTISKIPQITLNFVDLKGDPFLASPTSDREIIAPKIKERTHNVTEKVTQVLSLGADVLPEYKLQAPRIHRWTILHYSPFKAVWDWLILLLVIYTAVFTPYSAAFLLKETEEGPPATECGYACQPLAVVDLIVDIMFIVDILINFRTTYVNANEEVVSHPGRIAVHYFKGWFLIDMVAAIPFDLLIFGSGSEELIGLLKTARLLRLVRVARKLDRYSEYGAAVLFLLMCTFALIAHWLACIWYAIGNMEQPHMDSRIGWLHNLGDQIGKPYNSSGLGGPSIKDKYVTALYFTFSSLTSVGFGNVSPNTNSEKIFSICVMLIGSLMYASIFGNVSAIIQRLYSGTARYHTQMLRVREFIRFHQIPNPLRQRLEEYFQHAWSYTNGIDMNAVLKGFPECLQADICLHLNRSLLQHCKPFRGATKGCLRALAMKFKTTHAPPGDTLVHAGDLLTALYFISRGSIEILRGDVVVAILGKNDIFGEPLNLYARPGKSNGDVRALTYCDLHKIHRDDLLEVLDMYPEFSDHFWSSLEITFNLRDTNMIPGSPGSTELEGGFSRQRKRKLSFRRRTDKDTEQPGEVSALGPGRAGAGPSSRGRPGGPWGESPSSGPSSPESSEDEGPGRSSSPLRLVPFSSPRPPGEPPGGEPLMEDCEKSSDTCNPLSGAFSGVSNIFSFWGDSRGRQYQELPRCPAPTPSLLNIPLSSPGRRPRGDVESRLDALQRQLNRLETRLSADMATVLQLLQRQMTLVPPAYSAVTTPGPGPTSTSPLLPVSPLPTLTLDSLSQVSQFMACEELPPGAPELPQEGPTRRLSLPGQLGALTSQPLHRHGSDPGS

For the compound `CNCC1CCSc2cccnc21` (racemic) [Example 45, rac-1-(3,4-dihydro-2H-thiopyrano[3,2-b]pyridin-4-yl)-N-methylmethanamine dihydrochloride], on human TAAR1 receptor, the activation at 0.1 µM is 13%, the activation at 1 µM came out at 51% and the activation at 10 µM turned out to be 77%. The IC50 – broadly, the point on the concentration scale where inhibition reaches its midpoint – at hERG channel is above 100 µM.

Take `NC[C@@H]1C[C@@H](c2ccccc2)Oc2cccnc21` (racemic) [Example 25]: on human TAAR1 receptor, the activation at 0.1 µM was determined as 2%, the activation at 1 µM was 21% and the activation at 10 µM was found to be 63%. In addition, the concentration for half-maximal inhibition (IC50) on hERG channel is 5.8 µM.

For the compound `C[C@H]1Sc2cccnc2[C@@H]1CN` (racemic) [Example 15], on human TAAR1 receptor, the activation at 0.1 µM was 24%, the activation at 1 µM was determined as 67% and the activation at 10 µM is 90%. Besides, the concentration for half-maximal inhibition (IC50) on hERG channel is above 100 µM.

Turning to `NC[C@@H]1CCSc2cccnc21` (single isomer, unassigned) [Example 40, dihydrochloride], on human TAAR1 receptor, the activation at 0.1 µM turned out to be 25%, the activation at 1 µM is 57% and the activation at 10 µM is 68%. Moreover, the IC50 on hERG channel was above 100 µM.

For `C[C@H]1Oc2cccnc2[C@@H]1CN` [Example 27, 1-[(2R,3S)-2-methyl-2,3-dihydrofuro[3,2-b]pyridin-3-yl]methanamine dihydrochloride], at human TAAR1 receptor, the activation at 0.1 µM was determined as 40%, the activation at 1 µM stood at 81% and the activation at 10 µM worked out at 95%. Further, the IC50 on hERG channel was above 100 µM.

For the compound `Cc1ccc2c(n1)C(CN)CCS2` (stereo not shown) [Example 12], on human TAAR1 receptor, the activation at 0.1 µM worked out at 21%, the activation at 1 µM is 58% and the activation at 10 µM turned out to be 75%. For the same compound, the concentration for half-maximal inhibition (IC50) at hERG channel was above 100 µM.

`CC1(C)Oc2cccnc2C1CN` (stereo not shown) [Example 23]: on human TAAR1 receptor, the activation at 0.1 µM stood at 35%, the activation at 1 µM stood at 74% and the activation at 10 µM worked out at 91%. Besides, the half-inhibitory concentration (IC50) on hERG channel was above 100 µM.

Take `C[C@@H]1C[C@@H](CN)c2ncccc2S1` (racemic) [Example 14]: on human TAAR1 receptor, the activation at 0.1 µM was found to be 10%, the activation at 1 µM is 47% and the activation at 10 µM came out at 74%. In addition, on hERG channel, the IC50 is above 100 µM.

As to `CC[C@H]1Oc2cccnc2[C@@H]1CN` (stereo in doubt) [Example 22], on human TAAR1 receptor, the activation at 0.1 µM came out at 11%, the activation at 1 µM amounted to 56% and the activation at 10 µM is 84%. In addition, the concentration for half-maximal inhibition (IC50) on hERG channel is above 100 µM.

As to `Cc1ccnc2c1O[C@H](C)[C@H]2CN` [Example 34, 1-[(2R,3S)-2,7-dimethyl-2,3-dihydrofuro[3,2-b]pyridin-3-yl]methanamine dihydrochloride], at human TAAR1 receptor, the activation at 0.1 µM amounted to 10%, the activation at 1 µM stood at 48% and the activation at 10 µM was determined as 83%. Moreover, the IC50 at hERG channel is above 100 µM.

Consider `C[C@H]1Oc2cc(F)cnc2[C@@H]1CN` [Example 8, 1-[(2R,3S)-6-fluoro-2-methyl-2,3-dihydrofuro[3,2-b]pyridin-3-yl]methanamine dihydrochloride], for which, on human TAAR1 receptor, the activation at 0.1 µM came to 24%, the activation at 1 µM was 63% and the activation at 10 µM is 75%. For the same compound, the IC50 at hERG channel was above 100 µM.

Turning to `NC[C@@H]1CSc2cccnc21` (single isomer, unassigned) [Example 42, dihydrochloride], at human TAAR1 receptor, the activation at 0.1 µM was found to be 25%, the activation at 1 µM stood at 70% and the activation at 10 µM was 90%. In addition, the IC50 at hERG channel was above 100 µM.

For `Cc1ccc2c(n1)C(CN)CS2` (stereo not shown) [Example 11], on human TAAR1 receptor, the activation at 0.1 µM came to 20%, the activation at 1 µM was found to be 58% and the activation at 10 µM worked out at 79%. For the same compound, the IC50 on hERG channel was above 100 µM.

Values taken from patent US20240150370A1, “BICYCLIC PYRIDINE DERIVATIVE” (Sumitomo Pharma Co., Ltd., priority 0001, published 2024).
